Paper PMC10893053 (Pharmaceutics, 2024)
≈ marks a conversion by molar mass, not a printed value. Where “and” joins values, the source holds several entries; their conditions need not be identical. Identical values can stand only once. Like-named read-outs stand apart in the source and are kept apart here. Blank lines part the entries; values can stand above or below the compound they belong to.

Legend:
[1] = parameters: method as in PMID 19403275; settings: 1.33 mmol·L^−1 (1%) F127 solution; 37 °C; cited from earlier work
[2] = In vitro permeability, Franz diffusion cell, regenerated cellulose membrane; format: in vitro ADME; settings: 37 °C; for C0free (free CBZ concentration in the donor solution, C0free=C0·ffree): RC membrane experiment; for Papp at 5 h: pH 6.8, RC membrane
Procedure: (§1) The apparent permeability coefficients were measured at 37 °C with the help of a vertical-type Franz diffusion cell (PermeGear, Inc., Hellertown, PA, USA). The experimental setup was the same as it was described in our previous study, where the excess amount of the investigated substance was placed in glass cups with ground-in lids. The required volume of buffer pH 6.8 without and with a predetermined concentration of the excipient (F127 or SBE-β-CD in the present study) was added, and the suspension was mixed overnight and filtered to obtain a clear solution. The concentration of this solution was determined and used for the further calculation of the permeability coefficient. […] The membrane was mounted between the donor and receptor chambers of the Franz cell. The effective surface area of the membrane was 0.785 cm^2. Each experiment lasted 5 h. The donor solution was permanently mixing with a magnetic stirrer at a constant rate. The aliquots of the receptor solution (0.5 mL) were withdrawn every 30 min and promptly replaced with the same volume of the fresh buffer.
(§2) The apparent permeability coefficients were taken as the average values of no less than three replicas. […]
(§3) The authors underlined that when different excipients, such as cyclodextrins or micelle-forming polymers, are used, it is necessary to obtain “true” permeability values by a correction of permeability coefficients for the free drug concentration. In this study, the free drug concentration in the presence of F127 and SBE-β-CD was assessed indirectly through the equilibrium solubility experiments at all the excipient concentrations (Table 2).

[3] = parameters: method as in PMID 21415539; settings: water to 1-octanol; pH 7.4 of the aqueous phase; cited from earlier work
[4] = logP, partition of CBZ from water to 1-octanol; format: physicochemical; settings: 1-octanol/water, pH 7.4; after conversion from the molar units to the mass units
[5] = In vitro permeability, Franz diffusion cell, polydimethylsiloxane–polycarbonate membrane; format: in vitro ADME; settings: 37 °C; for C0free (free CBZ concentration in the donor solution, C0free=C0·ffree): PDS membrane experiment; for Papp at 5 h: pH 6.8, PDS membrane
Procedure: as §1, §2, §3

[6] = Micelle (F127)/buffer apparent partition coefficient of CBZ; format: physicochemical; settings: buffer pH 6.8, 37 °C
Procedure: (§4) Additionally, for the sake of the reliable comparison of the partition within the micellar and cyclodextrin systems, the concentrations of the excipient (F127 or SBE-β-CD) on the X-axis were expressed in kg∙L^−1. From the results of the partition coefficients determinations, the thermodynamics of solubilization by F127 and SBE-β-CD was disclosed by the excess free Gibbs energy ( ΔGS37°C ) evaluation, using the equation:(12) ΔGS37°C=−RT·lnKexcipient/buf
(§5) In the case of cyclodextrins, the nonspecific interaction between the solute and the cavity of cyclodextrin takes place, and the solubilization process may be attributed to the partition of solutes from the aqueous buffer into the cyclodextrin cavity. In this work, the partition from the micellar pseudo phase (F127) to the aqueous buffer pH 6.8, as well as from SBE-β-CD to the buffer was studied using the plots of the linear dependences (Figure S4), plotted according to Equations (10) and (11). The calculations were conducted in two variants.

[7] = Cyclodextrin (SBE-β-CD)/buffer apparent partition coefficient of CBZ; format: physicochemical; settings: buffer pH 6.8, 37 °C
Procedure: as §4, §5

[8] = CBZ/F127 association constant (Ka) from phase solubility diagram; format: physicochemical; settings: buffer pH 6.8, 37 °C
Text: To this end, in order to assess the concentration of F127 in the micellar form, the difference between the total F127 (CF127) concentration and the CMC was used.
The CMC value of F127 (Section 3.1) was used to calculate F127 micellar concentrations as the differences between the total CF127 and the CMC.

[9] = Stability constant of CBZ/SBE-β-CD complex (Kc) from phase solubility diagram; format: physicochemical; settings: buffer pH 6.8, 37 °C
[10] = Equilibrium solubility of CBZ, shake-flask method, HPLC; format: physicochemical; settings: phosphate buffer, aqueous buffer, thermodynamic from solid; pure buffer pH 6.8; 37.0±0.1 °C
Procedure: The experimental temperature of 37 °C corresponded to the standard temperature of a healthy human. […] The vials were continuously shaken in an air thermostat to achieve the equilibrium. After this, the suspensions were settled during no less than 6 h to avoid supersaturation [33]. […] The experimental results are presented as an average of at least three replicated experiments.
The samples of the solutions were analyzed via HPLC using the Shimadzu Prominence model LC-20 AD, equipped with a PDA detector and a C-18 column Luna® (150 mm × 4.6 mm i.d., 5 μm particle size, and 100 Å pore size) (Albert-Hahn-Str. 6-10, Duisburg, Germany). The column temperature was 40 °C. Eluent acetonitrile:water at a ratio of 40:60 v/v was used. An isocratic regime at a flow rate of 1 mL·min^−1 was applied. The injection volume was 20 μL.

[11] = cited from earlier work
[12] = Viscosity of F127 and SBE-β-CD solutions, Vibro Viscometer; format: physicochemical; settings: 37 °C
Procedure: The viscosity of F127 and SBE-β-CD solutions at concentrations used for the permeability experiments (1.0 w/v%, 2.0 w/v%, and 3.0 w/v%) was measured with the help of SV series Vibro Viscometer (A&D Company Ltd., Tokyo, Japan) with a high accuracy of 1% (standard deviation).
In turn, with SBE-β-CD in the donor solution, the Pappcalc values are somewhat lower with RC and higher with PDS membranes than the experimental Papp values. These findings allow the proposal of additional mechanisms that influence permeability, going beyond the model approach which primarily relied on solubility for quantitatively predicting permeability. The underestimation of the permeability through the PDS membrane with SBE-β-CD can probably be attributed to the specific interaction of anionic cyclodextrin with PDS, as it was underlined above. In addition, as it was reported in [57], decreased diffusivity can be attributed to the increased viscosity of the donor solution upon the acceleration of the excipient concentration. […] Fischer et al. proposed that just a change in the viscosity of the aqueous donor compartment might be the reason of the decreased permeability of carboxyfluorescein in the non-ionic surfactant poloxamer 188. To support the obtained results, the dynamic viscosity […] of the dissolution medium was measured at the experimental temperature of 37 °C and listed in Table S4. As expected, the viscosity was increased both with F127 and SBE-β-CD in solution.

[13] = F127 1.33 mmol·L^−1, buffer pH 6.8, read-out: Papp (apparent permeability coefficient)
[14] = F127 1.83 mmol·L^−1, buffer pH 6.8, read-out: Papp (apparent permeability coefficient)
[15] = F127 2.30 mmol·L^−1, buffer pH 6.8, read-out: Papp (apparent permeability coefficient)
[16] = SBE-β-CD 6.89 mmol·L^−1, buffer pH 6.8, read-out: Papp (apparent permeability coefficient)
[17] = SBE-β-CD 13.78 mmol·L^−1, buffer pH 6.8, read-out: Papp (apparent permeability coefficient)
[18] = SBE-β-CD 20.67 mmol·L^−1, buffer pH 6.8, read-out: Papp (apparent permeability coefficient)
[19] = pure buffer pH 6.8 (0 mmol·L^−1 excipient), read-out: Pabs (absolute permeability coefficient, Pabs=J/C0free)
[20] = pure buffer pH 6.8 (0 mmol·L^−1 excipient), read-out: Papp (apparent permeability coefficient)
[21] = excipient concentration expressed in kg∙L^−1
[22] = excipient concentration expressed in molarity
[23] = expressed per mass of excipient

C0free (free CBZ concentration in the donor solution, C0free=C0·ffree) ([2]; F127 1.33 mmol·L^−1): 473 µM
C0free (free CBZ concentration in the donor solution, C0free=C0·ffree) ([2]; F127 1.83 mmol·L^−1): 377 µM
C0free (free CBZ concentration in the donor solution, C0free=C0·ffree) ([2]; F127 2.30 mmol·L^−1): 473 µM
C0free (free CBZ concentration in the donor solution, C0free=C0·ffree) ([2]; SBE-β-CD 6.89 mmol·L^−1): 446 µM
C0free (free CBZ concentration in the donor solution, C0free=C0·ffree) ([2]; SBE-β-CD 13.78 mmol·L^−1): 388 µM
C0free (free CBZ concentration in the donor solution, C0free=C0·ffree) ([2]; SBE-β-CD 20.67 mmol·L^−1): 559 µM
Papp at 5 h [2, 13]: 32.2 ×10⁻⁶ cm/s
Papp at 5 h [2, 14]: 26.6 ×10⁻⁶ cm/s
Papp at 5 h [2, 15]: 20.3 ×10⁻⁶ cm/s
Papp at 5 h [2, 16]: 20.5 ×10⁻⁶ cm/s
Papp at 5 h [2, 17]: 13.4 ×10⁻⁶ cm/s
Papp at 5 h [2, 18]: 12.4 ×10⁻⁶ cm/s
Papp at 5 h [2, 19]: 55.5 ×10⁻⁶ cm/s
Papp at 5 h [2, 20]: 55.5 ×10⁻⁶ cm/s
logP [4]: 3.47
C0free (free CBZ concentration in the donor solution, C0free=C0·ffree) ([5]; F127 1.33 mmol·L^−1): 464 µM
C0free (free CBZ concentration in the donor solution, C0free=C0·ffree) ([5]; F127 1.83 mmol·L^−1): 378 µM
C0free (free CBZ concentration in the donor solution, C0free=C0·ffree) ([5]; F127 2.30 mmol·L^−1): 312 µM
C0free (free CBZ concentration in the donor solution, C0free=C0·ffree) ([5]; SBE-β-CD 6.89 mmol·L^−1): 440 µM
C0free (free CBZ concentration in the donor solution, C0free=C0·ffree) ([5]; SBE-β-CD 13.78 mmol·L^−1): 514 µM
C0free (free CBZ concentration in the donor solution, C0free=C0·ffree) ([5]; SBE-β-CD 20.67 mmol·L^−1): 500 µM
Papp at 5 h [5, 13]: 0.286 ×10⁻⁶ cm/s
Papp at 5 h [5, 14]: 0.253 ×10⁻⁶ cm/s
Papp at 5 h [5, 15]: 0.214 ×10⁻⁶ cm/s
Papp at 5 h [5, 16]: 0.127 ×10⁻⁶ cm/s
Papp at 5 h [5, 17]: 0.0796 ×10⁻⁶ cm/s
Papp at 5 h [5, 18]: 0.0565 ×10⁻⁶ cm/s
Papp at 5 h [5, 19]: 0.567 ×10⁻⁶ cm/s
Papp at 5 h [5, 20]: 0.567 ×10⁻⁶ cm/s
Partition coefficient KF127/buf [6, 21]: 58.54 (±0.86)
Partition coefficient KF127/buf [6, 22]: 737.63 (±10.90)
Partition coefficient KSBE-β-CD/buf [7, 21]: 205.11 (±0.51)
Partition coefficient KSBE-β-CD/buf [7, 22]: 297.67 (±0.75)
CBZ/F127 micellar association constant (Ka) [8]: 2374.2 (±118.7) M^−1
CBZ/F127 micellar association constant (Ka) [8, 23]: 65.5 (±3.27) L∙kg^−1
Apparent stability constant of CBZ/SBE-β-CD complex (Kc) [9]: 395.9 (±15.8) M^−1 and 395.9 M^−1
Apparent stability constant of CBZ/SBE-β-CD complex (Kc) [9, 23]: 247.5 (±5.23) L∙kg^−1
solubility thermodynamic [10]: 830 µM (≈ 196 µg/mL)
Compound: NC(=O)N1c2ccccc2C=Cc2ccccc21 [CBZ, carbamazepine]
Solubility of CBZ [1]: 1430 µM
P (partition coefficient water/1-octanol) [3]: 380.19
Stability constant of CBZ with SBE-β-CD ([11]; unbuffered double distilled water, 30 °C, ref 48 Jain et al.): 498.04 M⁻¹
Stability constant of CBZ with SBE-β-CD ([11]; undefined pH and temperature, ref 49 Smith et al.): 1035 M⁻¹

Viscosity ([12]; SBE-β-CD 6.89 mmol·L-1 donor solution): 0.72 mPa·s
Viscosity ([12]; SBE-β-CD 13.78 mmol·L-1 donor solution): 0.75 mPa·s
Viscosity ([12]; SBE-β-CD 20.67 mmol·L-1 donor solution): 0.8 mPa·s
Compound: sulfobutylether-β-cyclodextrin [SBE-β-CD]
